Experimental data published in PMC10716637 (RSC Advances, 2023).

Key:
VEGFR-2 = VEGFR-2 (Homo sapiens, UniProt P35968); assay: In vitro VEGFR-2 kinase inhibitory assay; assay type: biochemical
HCT116 = assay: MTT cytotoxicity assay, HCT116; assay type: cell-based, human; details: for EC50: Homo sapiens, HCT-116, read-out: EC50 HCT116
A549 = assay: MTT cytotoxicity assay, A549; assay type: cell-based, human; details: for EC50: Homo sapiens, A549, read-out: EC50 A549
HepG2 = assay: MTT cytotoxicity assay, HepG2; assay type: cell-based, human; details: for EC50: Homo sapiens, HepG2, read-out: EC50 HepG2
EGFR^T790M = EGFR^T790M (Homo sapiens, UniProt P00533, T790M); assay: In vitro EGFR^T790M kinase inhibitory assay; assay type: biochemical
EGFR^T790M, sequence (P00533 25-1210 T790M): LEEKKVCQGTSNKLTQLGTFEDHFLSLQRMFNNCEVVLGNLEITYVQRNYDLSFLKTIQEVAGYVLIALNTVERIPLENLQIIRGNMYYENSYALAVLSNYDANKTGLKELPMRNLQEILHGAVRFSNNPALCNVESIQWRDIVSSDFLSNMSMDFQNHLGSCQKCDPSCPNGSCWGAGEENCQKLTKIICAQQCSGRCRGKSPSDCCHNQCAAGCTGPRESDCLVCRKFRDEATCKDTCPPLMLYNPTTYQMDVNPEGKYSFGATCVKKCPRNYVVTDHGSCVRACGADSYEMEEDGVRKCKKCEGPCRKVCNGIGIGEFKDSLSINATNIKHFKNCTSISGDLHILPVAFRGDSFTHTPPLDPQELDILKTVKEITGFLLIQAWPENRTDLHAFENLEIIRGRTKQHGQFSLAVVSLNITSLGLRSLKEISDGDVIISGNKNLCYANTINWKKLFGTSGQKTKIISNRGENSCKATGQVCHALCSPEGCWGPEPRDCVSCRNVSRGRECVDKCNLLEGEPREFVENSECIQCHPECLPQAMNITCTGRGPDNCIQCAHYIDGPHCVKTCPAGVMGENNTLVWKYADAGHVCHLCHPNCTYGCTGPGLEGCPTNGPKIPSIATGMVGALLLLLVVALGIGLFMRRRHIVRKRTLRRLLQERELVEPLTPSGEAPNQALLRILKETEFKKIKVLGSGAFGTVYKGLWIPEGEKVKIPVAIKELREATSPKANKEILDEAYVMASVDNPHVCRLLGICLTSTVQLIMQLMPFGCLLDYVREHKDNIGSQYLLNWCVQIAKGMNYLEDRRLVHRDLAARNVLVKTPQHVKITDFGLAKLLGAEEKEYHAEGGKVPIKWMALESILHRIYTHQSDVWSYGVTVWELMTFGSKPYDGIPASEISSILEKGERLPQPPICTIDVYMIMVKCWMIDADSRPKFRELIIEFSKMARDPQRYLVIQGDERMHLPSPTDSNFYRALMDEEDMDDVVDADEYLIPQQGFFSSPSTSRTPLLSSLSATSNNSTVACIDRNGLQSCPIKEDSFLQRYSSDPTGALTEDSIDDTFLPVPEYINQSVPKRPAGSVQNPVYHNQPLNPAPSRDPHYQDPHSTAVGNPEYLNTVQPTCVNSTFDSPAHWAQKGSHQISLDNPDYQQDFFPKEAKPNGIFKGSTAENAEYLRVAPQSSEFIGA

MCF-7 = assay: MTT cytotoxicity assay, MCF-7; assay type: cell-based, human; details: for EC50: Homo sapiens, MCF7, read-out: EC50 MCF-7
EGFR^WT = EGFR^WT (Homo sapiens, UniProt P00533); assay: In vitro EGFR^WT kinase inhibitory assay; assay type: biochemical
EGFR^WT, sequence (P00533 25-1210): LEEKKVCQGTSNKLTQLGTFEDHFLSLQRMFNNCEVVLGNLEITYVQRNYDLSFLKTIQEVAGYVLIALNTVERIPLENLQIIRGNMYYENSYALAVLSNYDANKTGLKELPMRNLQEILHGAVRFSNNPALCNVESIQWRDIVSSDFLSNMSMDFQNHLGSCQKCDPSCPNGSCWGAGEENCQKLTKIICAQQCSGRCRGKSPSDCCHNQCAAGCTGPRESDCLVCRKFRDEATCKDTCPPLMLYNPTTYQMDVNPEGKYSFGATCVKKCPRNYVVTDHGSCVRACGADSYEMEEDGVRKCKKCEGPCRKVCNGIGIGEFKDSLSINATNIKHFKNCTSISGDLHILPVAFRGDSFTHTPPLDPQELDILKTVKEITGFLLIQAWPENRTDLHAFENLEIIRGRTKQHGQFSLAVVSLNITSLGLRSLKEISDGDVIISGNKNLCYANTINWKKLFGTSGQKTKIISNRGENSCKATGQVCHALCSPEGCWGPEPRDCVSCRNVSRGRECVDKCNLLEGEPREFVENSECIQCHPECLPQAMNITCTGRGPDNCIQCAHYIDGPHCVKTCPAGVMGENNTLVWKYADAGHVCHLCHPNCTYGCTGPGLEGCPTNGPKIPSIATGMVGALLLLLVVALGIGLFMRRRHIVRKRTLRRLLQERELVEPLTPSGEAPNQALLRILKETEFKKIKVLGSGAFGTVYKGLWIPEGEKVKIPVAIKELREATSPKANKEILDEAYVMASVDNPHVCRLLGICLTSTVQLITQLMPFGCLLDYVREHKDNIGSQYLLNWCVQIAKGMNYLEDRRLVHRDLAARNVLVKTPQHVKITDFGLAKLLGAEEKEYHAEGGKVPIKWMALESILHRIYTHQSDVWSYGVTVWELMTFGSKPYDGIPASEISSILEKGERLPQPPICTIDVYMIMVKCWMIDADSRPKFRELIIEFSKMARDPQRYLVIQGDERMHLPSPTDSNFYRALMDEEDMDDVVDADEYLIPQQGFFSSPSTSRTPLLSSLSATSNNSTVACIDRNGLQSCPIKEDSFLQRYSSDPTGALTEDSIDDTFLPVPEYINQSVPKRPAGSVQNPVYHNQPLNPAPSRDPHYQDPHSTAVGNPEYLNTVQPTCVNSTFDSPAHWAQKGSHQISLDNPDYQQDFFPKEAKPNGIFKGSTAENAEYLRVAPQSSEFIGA

[1] = Cytotoxicity against VERO normal cell lines; details: African green monkey, VERO normal cells

VEGFR-2, sequence (P35968 20-1356): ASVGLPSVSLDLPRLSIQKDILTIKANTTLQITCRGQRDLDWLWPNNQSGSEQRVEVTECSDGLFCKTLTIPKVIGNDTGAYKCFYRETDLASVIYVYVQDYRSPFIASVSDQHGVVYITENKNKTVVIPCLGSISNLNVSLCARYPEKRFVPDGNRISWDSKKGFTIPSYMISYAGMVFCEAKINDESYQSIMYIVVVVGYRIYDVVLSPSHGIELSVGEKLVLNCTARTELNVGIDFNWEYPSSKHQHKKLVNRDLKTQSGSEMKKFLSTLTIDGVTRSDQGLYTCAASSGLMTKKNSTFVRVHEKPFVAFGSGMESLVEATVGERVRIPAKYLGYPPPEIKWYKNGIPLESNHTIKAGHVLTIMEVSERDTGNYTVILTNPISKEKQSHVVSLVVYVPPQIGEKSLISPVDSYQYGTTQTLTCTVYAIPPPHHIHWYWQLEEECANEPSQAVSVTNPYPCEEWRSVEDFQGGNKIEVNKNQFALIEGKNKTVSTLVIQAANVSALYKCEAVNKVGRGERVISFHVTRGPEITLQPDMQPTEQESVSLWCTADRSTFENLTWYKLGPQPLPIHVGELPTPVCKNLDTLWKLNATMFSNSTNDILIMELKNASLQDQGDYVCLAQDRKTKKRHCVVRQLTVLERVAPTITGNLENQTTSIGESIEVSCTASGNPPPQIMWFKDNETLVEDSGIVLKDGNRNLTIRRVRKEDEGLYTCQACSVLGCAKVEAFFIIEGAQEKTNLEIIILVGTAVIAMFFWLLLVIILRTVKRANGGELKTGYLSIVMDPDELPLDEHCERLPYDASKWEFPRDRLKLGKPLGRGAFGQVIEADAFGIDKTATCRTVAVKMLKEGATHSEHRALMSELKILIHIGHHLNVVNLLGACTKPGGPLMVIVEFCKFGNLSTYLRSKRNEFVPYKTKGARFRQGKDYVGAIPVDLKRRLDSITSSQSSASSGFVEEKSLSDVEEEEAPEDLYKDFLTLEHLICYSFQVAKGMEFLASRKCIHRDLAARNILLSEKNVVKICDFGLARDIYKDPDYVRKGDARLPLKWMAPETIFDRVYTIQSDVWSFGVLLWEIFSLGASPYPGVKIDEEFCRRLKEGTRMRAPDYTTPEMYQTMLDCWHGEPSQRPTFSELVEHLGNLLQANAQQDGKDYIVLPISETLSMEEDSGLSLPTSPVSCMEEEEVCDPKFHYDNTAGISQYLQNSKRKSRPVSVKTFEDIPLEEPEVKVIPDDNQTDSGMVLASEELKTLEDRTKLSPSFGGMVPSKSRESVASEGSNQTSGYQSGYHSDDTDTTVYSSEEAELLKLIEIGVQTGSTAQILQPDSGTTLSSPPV

| IC50 (VEGFR-2) | IC50 (EGFR^T790M) | SMILES | EC50 (HCT116) | EC50 (A549) | EC50 (HepG2) | EC50 (MCF-7) | Selectivity index (SI): folds lethalness in HCT-116 than in VERO cells (HCT116; CC50 VERO vs EC50 HCT-116) | Selectivity index (SI): folds toxicity in A549 than in VERO cells (A549; CC50 VERO vs EC50 A549) | Selectivity index (SI): folds more toxic respecting HepG2 than normal VERO cells (HepG2; CC50 VERO vs EC50 HepG2) | IC50 (EGFR^WT) | CC50 [1] | Selectivity index (SI): folds toxic in MCF-7 than in normal VERO cells (MCF-7; CC50 VERO vs EC50 MCF-7) |
| --- | --- | --- | --- | --- | --- | --- | --- | --- | --- | --- | --- | --- |
| 2.5 ± 0.25 µM | 1.5 ± 0.5 µM | CCn1c(=O)n(CC(=O)Nc2ccc(C(=O)NN)cc2)c(=O)c2cc(I)ccc21 [Compound 7a, 2-(1-Ethyl-6-iodo-2,4-dioxo-1,4-dihydroquinazolin-3(2H)-yl)-N-(4-(hydrazinecarbonyl)phenyl)-acetamide] | 13.2 ± 1.5 µM | 13.7 ± 1.5 µM | 16 ± 1.5 µM | 15.5 ± 1.5 µM | – | – | – | – | – | – |
| 2.25 ± 0.25 µM | 2.05 ± 0.5 µM | CCCn1c(=O)n(CC(=O)Nc2ccc(C(=O)NN)cc2)c(=O)c2cc(I)ccc21 [Compound 7b, N-[4-(hydrazinecarbonyl)phenyl]-2-(6-iodo-2,4-dioxo-1-propyl-1,4-dihydroquinazolin-3(2H)-yl)acetamide] | 15.9 ± 1.5 µM | 15.1 ± 1.5 µM | 15.5 ± 1.5 µM | 13.9 ± 1.5 µM | – | – | – | – | – | – |

The remaining lines, values behind:

| SMILES | IC50 (VEGFR-2) | IC50 (EGFR^T790M) | EC50 (HCT116) | EC50 (A549) | EC50 (HepG2) | EC50 (MCF-7) | Selectivity index (SI): folds lethalness in HCT-116 than in VERO cells (HCT116; CC50 VERO vs EC50 HCT-116) | Selectivity index (SI): folds toxicity in A549 than in VERO cells (A549; CC50 VERO vs EC50 A549) | Selectivity index (SI): folds more toxic respecting HepG2 than normal VERO cells (HepG2; CC50 VERO vs EC50 HepG2) | IC50 (EGFR^WT) | CC50 [1] | Selectivity index (SI): folds toxic in MCF-7 than in normal VERO cells (MCF-7; CC50 VERO vs EC50 MCF-7) |
| --- | --- | --- | --- | --- | --- | --- | --- | --- | --- | --- | --- | --- |
| CCn1c(=O)n(CC(=O)Nc2ccc(C(=O)OC)cc2)c(=O)c2cc(I)ccc21 [Compound 5a, Methyl 4-{2-[1-ethyl-6-iodo-2,4-dioxo-1,4-dihydroquinazolin-3(2H)-yl]acetamido}benzoate] | 2 ± 0.25 µM | 0.86 ± 0.5 µM | 11.4 ± 0.7 µM | 8.45 ± 0.7 µM | 12.5 ± 0.7 µM | 11.6 ± 0.7 µM | – | – | – | – | – | – |
| CCOC(=O)c1ccc(NC(=O)Cn2c(=O)c3cc(I)ccc3n(CC)c2=O)cc1 [Compound 5b, Ethyl 4-{2-[1-ethyl-6-iodo-2,4-dioxo-1,4-dihydroquinazolin-3(2H)-yl]acetamido}benzoate] | 1.5 ± 0.1 µM | 0.8 ± 0.5 µM | 6.55 ± 0.7 µM | 6.78 ± 0.7 µM | 7.59 ± 0.7 µM | 7.4 ± 0.7 µM | – | – | – | – | – | – |
| CCCn1c(=O)n(CC(=O)Nc2ccc(C(=O)OC)cc2)c(=O)c2cc(I)ccc21 [Compound 5c, Methyl 4-{2-[6-iodo-2,4-dioxo-1-propyl-1,4-dihydroquinazolin-3(2H)-yl]acetamido}benzoate] | 1.5 ± 0.5 µM | 0.92 ± 0.5 µM | 6.93 ± 0.7 µM | 6.73 ± 0.7 µM | 7.75 ± 0.7 µM | 7.96 ± 0.7 µM | – | – | – | – | – | – |
| CCCn1c(=O)n(CC(=O)Nc2ccc(C(=O)OCC)cc2)c(=O)c2cc(I)ccc21 [Compound 5d, Ethyl 4-{2-[6-iodo-2,4-dioxo-1-propyl-1,4-dihydroquinazolin-3(2H)-yl]acetamido}benzoate] | 1.25 ± 0.1 µM | 0.4 ± 0.35 µM | 6.52 ± 0.7 µM | 6.68 ± 0.7 µM | 7.5 ± 0.7 µM | 7.37 ± 0.7 µM | 7.15 folds | 6.98 folds | 6.21 folds | 0.32 ± 0.03 µM | 46.6 ± 0.5 µM | 6.32 folds |
| CCNC(=O)c1ccc(NC(=O)Cn2c(=O)c3cc(I)ccc3n(CC)c2=O)cc1 [Compound 6a, 4-{2-[1-Ethyl-6-iodo-2,4-dioxo-1,4-dihydroquinazolin-3(2H)-yl]acetamido}-N-ethylbenzamide] | 1.4 ± 0.2 µM | 0.9 ± 0.5 µM | 7.6 ± 0.8 µM | 7.95 ± 0.8 µM | 7.8 ± 0.8 µM | 8.5 ± 0.8 µM | – | – | – | – | – | – |
| CCCn1c(=O)n(CC(=O)Nc2ccc(C(=O)NC)cc2)c(=O)c2cc(I)ccc21 [Compound 6b, 4-{2-[6-Iodo-2,4-dioxo-1-propyl-1,4-dihydroquinazolin-3(2H)-yl]acetamido}-N-methylbenzamide] | 1.65 ± 0.1 µM | 0.6 ± 0.35 µM | 8.35 ± 0.8 µM | 6.7 ± 0.8 µM | 8.5 ± 0.8 µM | 8.15 ± 0.8 µM | – | – | – | – | – | – |
